From patent publication US20240148728A1, “NOVEL METHOD TO BLOCK IN[…] DEATH AND IL-1BETA SECRETION CAUSED BY […] UV I[…] GENETIC AND CHEMICAL INHIBITORS OF ZAKA AND THE NLRP1 INFLAMMASOME” (priority 2021, published 2024)

How the values were obtained:
NLRP1 = assay: Ribosome-bound NLRP1, sucrose cushion; format: cell-based, human; details: N-TERT cell lysates
Protocol: Crude cellular ribosome fractions were purified by sedimentation through a 30% sucrose cushion or a 10-30% sucrose gradient. Cells were lysed for 20 min in 15 mM Tris, pH 7.5, 0.5% NP-40, 6 mM MgCl2, 300 mM NaCl, with 1× protease inhibitors before centrifugation for 10 min at 12000 g, 4° C. The supernatant was then carefully layered onto a 30% sucrose cushion 30% sucrose in 20 mM Tris, pH 7.5, 2 mM MgCl2, 150 mM KCl and ultra-centrifuged at 34,000 rpm for 24 h using Beckman Coulter Ultracentrifuge, Optima XE. Pellets then washed three times with ice cold PBS and suspended in 100 mM KCl, 5 mM MgCl2, 20 mM HEPES, pH 7.6, 1 mM DTT and 10 mM NH4Cl. Purified ribosome fractions were then analysed by immunoblot.

[1] = system: aortic endothelial cells (HAECs); assay: Inflammasome activation and pyroptosis in aortic endothelial cells; format: cell-based, human; details: ANS 1 μM
[2] = system: mouse bone marrow derived macrophages (BMDMs); assay: ANS-triggered IL1β secretion and cell death in mouse bone marrow derived macrophages; format: cell-based
N-TERT cells = assay: Secreted IL1β / inflammasome activation in N-TERT cells; format: cell-based, human
Protocol: To measure secreted cytokine and chemokine levels a human IL1β enzyme linked immunosorbent assay (ELISA) kit (BD, #557953), human IL-18 ELISA kit (MBL, #7620) or an Immune Monitoring 65-Plex Human ProcartaPlex Panel (EPX650-10065-901) were used according to manufacturer's protocols. Further analysis of Luminex or ELISA profiling of samples was performed using heatmap and PCA analysis on Clustervis (biitdotcsdotutdotee/clustvis/) [Somani et al., Proceeding of SSIC (2019)].
(§1) The following antibodies were used in this study: cleaved PARP1 (Abclonal, #WH162766), Cleaved CASP3 (Abclonal, #WH154646), Full length GSDMD-FL (Abcam, #ab210070), IL1β p17 specific (CST, #83186S), CARD8 (Abcam, CARD8-NT: ab19485, CARD8-CT: ab241186), DPP9 (Abcam, ab226334), c-Myc (Santa Cruz Biotechnology, #sc-40), HA tag (Santa Cruz Biotechnology, #sc-805), GAPDH (Santa Cruz Biotechnology, #sc-47724), ASC (Adipogen, #AL-177), CASP1 (Santa Cruz Biotechnology, #sc-622), 11_1B (R&D systems, #AF-201), FLAG (SigmaAldrich, #F3165), NLRP1 (R&D systems, #AF6788), IL18 (Abcam ab207324), cleaved GSDMD-NT (Asp275) (Cell Signaling Technology, #36425), RPL31 (Abclonal, #WH162766), CASP7 (Abcam, ab255818), CASP8 (Abcam, ab32397), cleaved CASP3 (Cell Signaling Technology, #9664). All horseradish peroxidase (HRP)— conjugated secondary antibodies were purchased from Jackson Immunoresearch (goat anti-mouse IgG: 115-035-166; goat anti-rabbit IgG: 111-035-144; and donkey anti-goat IgG: 705-005-147). Blue-Native PAGE was carried out using the Native-PAGE system (ThermoFisher) with 10-20 μg of total lysate. For SDS-PAGE using whole cell lysates, cells were resuspended in tris-buffered saline 1% NP-40 with protease inhibitors (Thermo Scientific, #78430). Protein concentration was determined using the Bradford assay (Thermo Scientific, #23200) and […] of protein loaded, a part from cleaved GSDMD-NT visualisation where […] of protein was used. All primary antibodies were used at 250 ng/ml. Visualisation of ASC oligomerization was previously described (Robinson et al., 2020). For analysis of IL1β and IL-18 cleavage in the media by immunoblotting, samples were concentrated using filtered centrifugation (Merck, Amicon Ultra, #UFC5003BIK). Protein samples were run using immunoblotting, and then visualized using a ChemiDoc Imaging system (Bio-Rad). PhosTag SDS-PAGE was carried out using homemade 10% SDS-PAGE gel, with addition of Phos-tag Acrylamide (Wako Chemicals, AAL-107) to a final concentration of 30 μM and manganese chloride(II) (Sigma-Aldrich, #63535) to 60 μM.

[3] = system: 3D human organotypic skin; assay: 3D organotypic skin histology and cleaved GSDMD-NT immunostaining; format: cell-based
Protocol: Organotypic cultures were generated by adapting a previously described protocol (Arnette et al., 2016). Briefly, 2 ml of collagen I (4 mg/ml; Corning, #354249) mixed with 7.5×10^5 human fibroblasts were allowed to polymerize over 1-m1 acellular collagen I in 6-well culture inserts (Falcon, #353102) placed in 6-well deep well plate (Falcon, #355467). After 24 hours, 1×10^6 primary human keratinocytes were seeded into the inserts and kept submerged in a 3:1 DMEM (Hyclone, #SH30243.01) and F12 (Gibco, #31765035) mixture with 10% FBS (Hyclone, #SV30160.03), 100 U/ml penicillin-streptomycin (Gibco, #15140122), 10 μM Y-27632 (Tocris, #1254), 10 ng/ml EGF (Sigma-Aldrich, #E9644), 1×10^−10 M cholera toxin (Enzo, #BML-G117-001), 0.4 μg/ml hydrocortisone (Sigma-Aldrich, #H0888), 0.0243 mg/ml adenine (Sigma-Aldrich, #A2786), 5 μg/ml insulin (Sigma-Aldrich, #12643), 5 μg/ml transferrin (Sigma-Aldrich, #T2036) and 2×10^−9 M 3,3′,5′-triiodo-L-thyronine (Sigma-Aldrich, #T6397). After another 24 hours, the organotypic cultures were then raised at the air-liquid interface and fed with the submerged media (without Y-27632 and EGF) below the insert to induce epidermal differentiation. The air-lifting medium was replaced every 2 days and treatments began 10-14 days after airlifting. Organotypic cultures were then harvested 24 hours after treatment and formalin fixed for 24 hours. Fixed tissues were then embedded into wax for histological purposes.
For immunohistochemistry staining of cleaved N-terminal GSDMD a previously established protocol with modifications was used [Wang et al., Cell 180:941-955.e20 (2020)]. Briefly, 5 μm formalin fixed and paraffin embedded sections were deparaffinized and rehydrated through a series of alcohol. The sections were then rehydrated in an antigen retrieval buffer (Dako, Tris-EDTA, pH 9). Sections were then blocked in goat serum for 20 mins at RT before primary antibody incubated overnight at 4° C. Immunostaining was visualised using DAB substrate and chromogen detection kit (Dako, #K3468). Sections were then counterstained with Myer's Hematoxylin.

NLRP1-NT = assay: NLRP1 cleavage / NLRP1-NT level by immunoblot; format: cell-based, human
Description: as §1

[4] = system: primary human keratinocytes; assay: Inflammasome-driven pyroptosis in primary human keratinocytes; format: cell-based; details: keratinocytes freshly isolated from a healthy donor

SMILES: COc1ccc(C[C@H]2NC[C@H](O)[C@H]2OC(C)=O)cc1 [ANS, Anisomycin]
- level of ribosome-bound NLRP1 (NLRP1): dramatically increased the level of ribosome-bound NLRP1
- canonical inflammasome activation and pyroptosis [1]: underwent canonical inflammasome activation and pyroptosis
- IL1β secretion and cell death, wild-type versus Nlrp1a/b KO [2]: did not differ between wild-type and NIrp1a/b KO
- IL1β secretion and pyroptotic death in ZAKα KO cells (N-TERT cells; ZAKα KO N-TERT cells): completely resistant
- IL1β secretion at high concentration versus lower doses (N-TERT cells; ultra-high doses of ANS): significant decrease in IL1β secretion as compared to lower doses
- epidermal dyskeratosis ([3]; H&E, 24 hours after treatment): caused striking epidermal dyskeratosis
- cleaved GSDMD N-terminal fragment at the cell membrane ([3]; immunostaining): prominently enriched at the cell membrane
- specific cleavage of overexpressed NLRP1 (smaller bands) (NLRP1-NT; ANS-treated cells): did not observe any smaller bands
- level of intact NLRP1-NT (NLRP1-NT; NLRP1 KO keratinocytes rescued with full-length NLRP1): caused a significant reduction in the level of intact NLRP1-NT
- inflammasome-driven pyroptosis [4]: induce inflammasome-driven pyroptosis was also confirmed
